Assay results: PubChem BioAssay (NCI)
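Results reflect a 48-hour exposure of cells in 96-well plates to compound at five concentrations. GI50 = concentration required for 50% inhibition of growth. The concentration for full growth arrest is given as TGI.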

Tests used:
Assay in all cases: NCI-60 cell line screen, 48 h
[1] = tested on: DU-145 prostate
[2] = tested on: HCT-116 colon
[3] = tested on: HCT-15 colon
[4] = tested on: HS 578T breast
[5] = tested on: HT29 colon
[6] = tested on: MALME-3M melanoma
[7] = tested on: SK-OV-3 ovarian
[8] = tested on: SNB-75 CNS
[9] = tested on: TK-10 renal
[10] = tested on: UO-31 renal

SMILES | TGI [1] | TGI [2] | TGI [3] | TGI [4] | TGI [5] | TGI [6] | TGI [7] | TGI [8] | TGI [9] | TGI [10] | GI50 [6] | GI50 [8] | GI50 [1] | GI50 [7] | GI50 [9] | GI50 [10] | GI50 [2] | GI50 [3] | GI50 [4] | GI50 [5]
Cc1ccc(C(C)C)c(OCC(=O)N/N=C/c2c[nH]c3ccc(Br)cc23)c1 | 8.06 µM | 11 µM | 14.9 µM | 20.2 µM | 4.78 µM | 21.8 µM | 12.7 µM | 5.95 µM | 9.15 µM | 13.7 µM | – | – | – | – | – | – | – | – | – | –
O=C1C(c2c(O)[nH]c3ccc(Cl)cc23)=Nc2ccccc21 | > 25.9 µM | 5.18 µM | > 100 µM | 24.1 µM | > 100 µM | > 58.4 µM | 11.2 µM | 15.5 µM | 18.8 µM | 2.25 µM | – | – | – | – | – | – | – | – | – | –
Cc1cccc2c1Sc1ccccc1C2NC(=O)CN(C)C (stereo not drawn) | – | > 100 µM | > 100 µM | – | > 100 µM | – | > 100 µM | 86.7 µM | > 100 µM | > 100 µM | – | – | – | – | – | – | – | – | – | –
CN(C)c1cccc(OC(=O)NCCCl)c1 | – | > 100 µM | > 100 µM | – | > 100 µM | > 100 µM | > 100 µM | > 100 µM | – | > 100 µM | > 100 µM | > 100 µM | – | – | – | – | – | – | – | –
O=C(Sc1n[nH]c(=O)[nH]c1=O)c1cccc2nc3ccccc3nc12 | 36.2 µM | > 100 µM | > 100 µM | 77.8 µM | 61.9 µM | 24.8 µM | > 100 µM | – | > 100 µM | – | – | – | – | – | – | – | – | – | – | –
CSCC(CO)NC(=O)/C=C/c1c(C)[nH]c(=O)[nH]c1=O (stereo not drawn) | – | > 875 µM | > 875 µM | – | > 875 µM | > 875 µM | > 875 µM | > 875 µM | – | > 875 µM | – | – | – | – | – | – | – | – | – | –
O=S(O)CCCSSSCCCS(=O)O | – | > 100 µM | – | – | > 100 µM | > 100 µM | > 100 µM | > 100 µM | > 100 µM | > 100 µM | – | – | – | – | – | – | – | – | – | –
N#C/C(=C\c1ccc([N+](=O)[O-])o1)c1n[nH]c(Cc2ccccc2)n1 | 3 µM | 0.668 µM | – | 21 µM | 2.83 µM | 4.4 µM | 16.5 µM | 6.75 µM | 4.15 µM | 9.74 µM | – | – | – | – | – | – | – | – | – | –
c1csc(-c2ccc(CNc3c4ccccc4nc4ccccc34)cc2)c1 | 3.07 µM | – | – | – | – | – | 29.8 µM | 6.58 µM | 3.28 µM | 2.57 µM | – | 2.24 µM | 1.65 µM | 11 µM | 1.76 µM | 1.19 µM | – | – | – | –
NNC(=O)c1cc([N+](=O)[O-])ccc1NC(=O)C12CC3CC(CC(C3)C1)C2 | > 100 µM | > 100 µM | 3.42 µM | 28.8 µM | > 100 µM | 56.1 µM | 42.4 µM | – | 59.5 µM | 31.5 µM | – | – | – | – | – | – | – | – | – | –
CC(=O)OC1CC(OC2C(O)CC(OC3C(O)CC(OC4CCC5(C)C(CCC6C5CCC5(C)C(C7=CC(=O)OC7)CCC65O)C4)OC3C)OC2C)OC(C)C1OC1OC(CO)C(O)C(O)C1O (stereo not drawn) | 0.0489 µM | 0.0472 µM | 0.0679 µM | 0.0926 µM | 0.171 µM | 0.112 µM | 0.186 µM | 0.249 µM | 0.149 µM | 0.13 µM | – | – | – | – | – | – | – | – | – | –
COC(=O)c1sc2c(c1C(=O)OC)C(=NC(C)(C)C)SC2=NC(C)(C)C | 30.5 µM | 30.5 µM | 34.3 µM | 57.5 µM | 37.6 µM | 37.8 µM | 55.7 µM | – | 33.2 µM | 2.43 µM | – | – | – | – | – | – | – | – | – | –
COc1cc(NCCC(=O)O)c2ncccc2c1 | – | > 100 µM | > 100 µM | > 100 µM | > 100 µM | > 100 µM | – | – | > 100 µM | > 100 µM | – | – | – | – | – | – | – | – | – | –
c1ccc2c(c1)SP1Sc3ccccc3P21 (stereo not drawn) | – | > 100 µM | > 100 µM | – | > 100 µM | > 100 µM | > 100 µM | > 100 µM | – | > 100 µM | – | – | – | – | – | – | – | – | – | –
CN(c1ccccc1)c1nc(=[N+]2CCCC2)ss1 | – | > 100 µM | > 100 µM | – | – | > 100 µM | > 100 µM | > 100 µM | > 100 µM | > 100 µM | – | – | – | – | – | – | – | – | – | –
CO/C=C1\OC(=O)C=C1OC | – | > 100 µM | > 100 µM | – | > 100 µM | > 100 µM | > 100 µM | > 100 µM | – | > 100 µM | – | – | – | – | – | – | – | – | – | –
Clc1cc(OCc2nn3c(Cc4ccccc4)nnc3s2)c(Cl)cc1OCc1nn2c(Cc3ccccc3)nnc2s1 | > 100 µM | > 100 µM | > 100 µM | > 100 µM | > 100 µM | > 100 µM | 82.1 µM | 9.97 µM | > 100 µM | > 100 µM | – | – | – | – | – | – | – | – | – | –
CC[C@@H]([C@H](O)c1ccccc1Cl)[N+](=O)[O-] | > 100 µM | > 100 µM | > 100 µM | > 100 µM | > 100 µM | – | > 100 µM | > 100 µM | > 100 µM | > 100 µM | – | – | – | – | – | – | – | – | – | –
Nc1nc(Cl)c(N)c(NCC2(CO)CCC(CCc3ccccc3)C2)n1 (stereo not drawn) | 55.1 µM | 31.3 µM | 41.8 µM | > 63.8 µM | 29.2 µM | 30.3 µM | 63.8 µM | 63.9 µM | > 70.7 µM | 41.7 µM | – | – | – | – | – | – | – | – | – | –
Cc1ccc(Nc2nc(=O)c3c([nH]c4ccccc43)s2)cc1 | 32.5 µM | – | 23.1 µM | 75 µM | 23.2 µM | 26.8 µM | > 100 µM | 31.6 µM | 23.9 µM | 7.32 µM | – | – | – | – | – | – | – | – | – | –
c1ccc2c(c1)SCCc1cn[nH]c1-2 | – | > 100 µM | > 100 µM | – | > 100 µM | > 100 µM | > 100 µM | > 100 µM | – | > 100 µM | – | – | – | – | – | – | – | – | – | –
COCCNCc1ccc(-c2cc3nccc(Oc4ccc(NC(=O)C5(C(=O)Nc6ccc(F)cc6)CC5)cc4F)c3s2)nc1 | 4.51 µM | 3.92 µM | 4.57 µM | 4 µM | 2.89 µM | – | 3.78 µM | 2.26 µM | 4.43 µM | – | – | 1.03 µM | 2.06 µM | 1.93 µM | 2.21 µM | – | 1.78 µM | 1.68 µM | 1.06 µM | 0.912 µM
c1ccc(C2=NN=C3C(c4ccccc4)=Nc4ccccc4N3C2)cc1 | > 100 µM | > 95.6 µM | > 100 µM | 67.5 µM | > 69.6 µM | 97.9 µM | > 100 µM | – | 43.4 µM | > 59.4 µM | – | – | – | – | – | – | – | – | – | –
